# Laboratory results as given in ChEMBL document CHEMBL3217509, “Discovery of an HIV integrase inhibitor with an excellent resistance profile” (Medchemcomm, 2013).
# Key:
# [1] = test system: Human immunodeficiency virus 1; experiment: Resistance ratio of IC50 for MLV pseudotyped HIV1 NL4-3 expressing integrase V72I/F121Y/T125K/V151L mutant to IC50 for MLV pseudotyped HIV1 NL4-3 expressing wild type integrase; format: functional
# [2] = Volume of distribution at steady state in rat at 2 mg/kg, po and 2 mg/kg, iv; format: ADME, organism-based; conditions: in vivo, read-out: Vdss
# [3] = Half life in dog at 0.1 mg/kg, iv; format: ADME, organism-based, Canis lupus familiaris; design: dose 0.1 mg/kg, route intravenous; conditions: in vivo
# [4] = Selectivity ratio of CC50 for HIV1 NL4-3 infected in human MT2 cells to IC50 for human MT2 cells; format: ADME, cell-based; conditions: read-out: Ratio CC50/IC50
# [5] = Volume of distribution at steady state in healthy human at 100 ug, iv; format: ADME, organism-based; conditions: in vivo, read-out: Vdss
# [6] = test system: Human immunodeficiency virus 1; experiment: Antiviral activity against HIV1 HT92596 infected in human PBMC after 5 days by human JC53BL cell-based beta-galactosidase reporter gene assay; format: functional, organism-based; conditions: Human immunodeficiency virus 1, HT92596, JC53BL, 120 h
# [7] = Clearance in rat liver microsomes assessed per mg of protein; format: ADME; conditions: read-out: CLH
# [8] = Clearance in rat hepatocytes assessed per million of cells; format: ADME, cell-based, Hepatocyte; conditions: read-out: CLH
# [9] = Lipophilicity, log D of the compound; format: physicochemical; conditions: octanol/water
# [10] = Oral bioavailability in rat at 2 mg/kg; format: ADME, organism-based; conditions: in vivo
# [11] = test system: Human immunodeficiency virus 1; experiment: Antiviral activity against HIV1 ZA97003 infected in human PBMC after 5 days by human JC53BL cell-based beta-galactosidase reporter gene assay; format: functional, organism-based; conditions: Human immunodeficiency virus 1, ZA97003, JC53BL, 120 h
# Canis familiaris = experiment: Clearance in dog at 0.1 mg/kg, iv; format: ADME, organism-based, Canis lupus familiaris; design: dose 0.1 mg/kg, route intravenous; conditions: in vivo
# [12] = test system: Human immunodeficiency virus 1; experiment: Antiviral activity against HIV1 UG94118 infected in human PBMC after 5 days by human JC53BL cell-based beta-galactosidase reporter gene assay; format: functional, organism-based; conditions: Human immunodeficiency virus 1, UG94118, JC53BL, 120 h
# [13] = Intrinsic clearance in human hepatocytes assessed assessed per million of cells by LC-MS/MS analysis; format: ADME, cell-based, Hepatocyte; conditions: read-out: CLH
# [14] = Inhibition of DNA polymerase beta (unknown origin); design: species or system Homo sapiens
# [15] = Clearance in dog hepatocytes assessed per million of cells; format: ADME, cell-based, Canis lupus familiaris, Hepatocyte; conditions: read-out: CLH
# [16] = Intrinsic clearance in human liver microsomes assessed per mg of protein by LC-MS/MS analysis; format: ADME; conditions: read-out: CLH
# [17] = test system: Human immunodeficiency virus 1; experiment: Antiviral activity against HIV1 BR92004 infected in human PBMC after 5 days by human JC53BL cell-based beta-galactosidase reporter gene assay; format: functional, organism-based; conditions: Human immunodeficiency virus 1, BR92004, JC53BL, 120 h
# [18] = test system: Human immunodeficiency virus 1; experiment: Antiviral activity against HIV1 HT92599 infected in human PBMC after 5 days by human JC53BL cell-based beta-galactosidase reporter gene assay; format: functional, organism-based; conditions: Human immunodeficiency virus 1, HT92599, JC53BL, 120 h
# [19] = Plasma protein binding in rat; format: ADME, cell-free; conditions: read-out: PPB
# [20] = test system: Human immunodeficiency virus 1; experiment: Resistance ratio of IC50 for MLV pseudotyped HIV1 NL4-3 expressing integrase E138A mutant to IC50 for MLV pseudotyped HIV1 NL4-3 expressing wild type integrase; format: functional
# [21] = test system: Human immunodeficiency virus 1; experiment: Resistance ratio of IC50 for MLV pseudotyped HIV1 NL4-3 expressing integrase T97A mutant to IC50 for MLV pseudotyped HIV1 NL4-3 expressing wild type integrase; format: functional
# [22] = test system: Human immunodeficiency virus 1; experiment: Resistance ratio of IC50 for MLV pseudotyped HIV1 NL4-3 expressing integrase N155H mutant to IC50 for MLV pseudotyped HIV1 NL4-3 expressing wild type integrase; format: functional
# [23] = Inhibition of DNA polymerase gamma (unknown origin); design: species or system Homo sapiens
# [24] = test system: Human immunodeficiency virus 1; experiment: Antiviral activity against HIV1 NL4-3 infected in human PBMC after 5 days by human JC53BL cell-based beta-galactosidase reporter gene assay; format: functional, organism-based; conditions: Human immunodeficiency virus 1, NL4-3, JC53BL, 120 h
# [25] = test system: Human immunodeficiency virus 1; experiment: Resistance ratio of IC50 for MLV pseudotyped HIV1 NL4-3 expressing integrase E92Q/N155H mutant to IC50 for MLV pseudotyped HIV1 NL4-3 expressing wild type integrase; format: functional
# [26] = Clearance in rat liver microsomes assessed per mg of protein in presence of UDPGA; format: ADME; conditions: read-out: CLH
# [27] = Inhibition of DNA polymerase alpha (unknown origin); design: species or system Homo sapiens
# [28] = test system: Human immunodeficiency virus 1; experiment: Resistance ratio of IC50 for MLV pseudotyped HIV1 NL4-3 expressing integrase G140S mutant to IC50 for MLV pseudotyped HIV1 NL4-3 expressing wild type integrase; format: functional
# [29] = test system: Human immunodeficiency virus 1; experiment: Resistance ratio of IC50 for MLV pseudotyped HIV1 NL4-3 expressing integrase G140S/Q148h mutant to IC50 for MLV pseudotyped HIV1 NL4-3 expressing wild type integrase; format: functional
# [30] = Clearance in healthy human at 100 ug, iv; format: ADME, organism-based; conditions: in vivo
# [31] = test system: Human immunodeficiency virus 1; experiment: Resistance ratio of IC50 for MLV pseudotyped HIV1 NL4-3 expressing integrase Q148H mutant to IC50 for MLV pseudotyped HIV1 NL4-3 expressing wild type integrase; format: functional
# [32] = test system: Human immunodeficiency virus 1; experiment: Antiviral activity against HIV1 BaL infected in human PBMC after 5 days by human JC53BL cell-based beta-galactosidase reporter gene assay; format: functional, organism-based; conditions: Human immunodeficiency virus 1, BaL, 120 h
# [33] = Half life in rat at 2 mg/kg, po and 2 mg/kg, iv; format: ADME, organism-based; conditions: in vivo
# [34] = Plasma protein binding in dog; format: ADME, cell-free, Canis lupus familiaris; conditions: read-out: PPB (converted)
# [35] = test system: Human immunodeficiency virus 1; experiment: Resistance ratio of IC50 for MLV pseudotyped HIV1 NL4-3 expressing integrase V72I/F121Y/T125K mutant to IC50 for MLV pseudotyped HIV1 NL4-3 expressing wild type integrase; format: functional
# [36] = Half life in healthy human at 100 ug, iv; format: ADME, organism-based; conditions: in vivo
# [37] = test system: Human immunodeficiency virus 1; experiment: Resistance ratio of IC50 for MLV pseudotyped HIV1 NL4-3 expressing integrase T125K/F121Y mutant to IC50 for MLV pseudotyped HIV1 NL4-3 expressing wild type integrase; format: functional
# [38] = test system: Human immunodeficiency virus 1; experiment: Resistance ratio of IC50 for MLV pseudotyped HIV1 NL4-3 expressing integrase E92Q mutant to IC50 for MLV pseudotyped HIV1 NL4-3 expressing wild type integrase; format: functional
# Rattus norvegicus = experiment: Clearance in rat at 2 mg/kg, po and 2 mg/kg, iv; format: ADME, organism-based; conditions: in vivo
# [39] = test system: Human immunodeficiency virus 1; experiment: Antiviral activity against HIV1 NL4-3 infected in human MT2 cells after 3 days by human JC53BL cell-based beta-galactosidase reporter gene assay; format: functional, organism-based; conditions: Human immunodeficiency virus 1, NL4-3, JC53BL, 72 h
# [40] = test system: Human immunodeficiency virus 1; experiment: Antiviral activity against HIV1 SF162 infected in human PBMC after 5 days by human JC53BL cell-based beta-galactosidase reporter gene assay; format: functional, organism-based; conditions: Human immunodeficiency virus 1, SF162, JC53BL, 120 h
# [41] = Cytotoxicity against human MT2 cells after 3 days by CellTitre-Glo assay; format: cell-based
# [42] = test system: Human immunodeficiency virus 1; experiment: Antiviral activity against HIV1 UG92037 infected in human PBMC after 5 days by human JC53BL cell-based beta-galactosidase reporter gene assay; format: functional, organism-based; conditions: Human immunodeficiency virus 1, UG92037, JC53BL, 120 h
# [43] = test system: Human immunodeficiency virus 1; experiment: Antiviral activity against HIV1 CMU06 infected in human PBMC after 5 days by human JC53BL cell-based beta-galactosidase reporter gene assay; format: functional, organism-based; conditions: Human immunodeficiency virus 1, CMU06, JC53BL, 120 h
smiles,measurement,setting,value
COc1cc(F)ccc1Cn1ccc2c3c(ncc21)C(=O)N(O)CC3 [PF-04776548],Ratio IC50,[1],<10
same,Vd,[2],3 L/kg
same,half-life,[3],72 min
same,selectivity ratio,[4],4800
same,Vd,[5],5.7 L/kg
same,EC50,[6],0.84 nM
same,microsomal CLint,[7],26 µL/min/mg
same,hepatocyte CLint,[8],33 µL/min/1e6 cells
same,logD,[9],2.1
same,bioavailability,[10],1%
same,EC50,[11],0.15 nM
same,clearance,Canis familiaris,24 mL/min/kg
same,EC50,[12],6.68 nM
same,hepatocyte CLint,[13],32.7 µL/min/1e6 cells
same,IC50,[14],> 100 µM
same,hepatocyte CLint,[15],17 µL/min/1e6 cells
same,microsomal CLint,[16],8.3 µL/min/mg
same,EC50,[17],0.44 nM
same,EC50,[18],0.37 nM
same,fraction unbound,[19],0.09
same,Ratio IC50,[20],<10
same,Ratio IC50,[21],<10
same,Ratio IC50,[22],<10
same,IC50,[23],7.1 µM
same,EC50,[24],0.48 nM
same,Ratio IC50,[25],<10
same,microsomal CLint,[26],43 µL/min/mg
same,IC50,[27],> 100 µM
same,Ratio IC50,[28],<10
same,Ratio IC50,[29],<10
same,clearance,[30],18 mL/min/kg
same,Ratio IC50,[31],<10
same,EC50,[32],2.22 nM
same,half-life,[33],18 min
same,fraction unbound,[34],0.16
same,Ratio IC50,[35],<10
same,half-life,[36],168 min
same,Ratio IC50,[37],<10
same,Ratio IC50,[38],<10
same,clearance,Rattus norvegicus,98 mL/min/kg
same,IC50,[39],1.5 nM
same,EC50,[40],1.68 nM
same,CC50 at 72 h,[41],7.36 µM
same,EC50,[42],0.84 nM
same,EC50,[43],0.61 nM
